{"source": "paper PMC3674988", "about": "“Scrutinizing MHC-I Binding Peptides and Their Limits of Variation” (PLoS Computational Biology, 2013)"}
{"system": "H-2K^b:IgG fusion protein", "assay": "Thermal denaturation assay, direct binding of SIINFEKL fragments", "design": "species or system mouse", "conditions": "normalized fluorescence melting curves, first derivative; vs NoLigand; 100 µM peptide", "experimental": "Thermal denaturation studies were conducted using a StepOnePlus real-time PCR system (Applied Biosystems) with MicroAmp optical 96-well plates (Applied Biosystems cat. no. N8010560). Wells were loaded with 10 µl of H-2K^b:IgG fusion protein solution (protein conc. = 0.5 mg×ml^−1; BD Biosciences cat. no. 550750) – respectively 10 µl of PBS buffer (pH 7.36) for ligand-only controls – 2 µl of peptide or peptide fragments, 2 µl of 10× SYPRO Orange (SigmaAldrich cat. no. S5692) and 6 µl (8 µl for negative controls) to yield a total volume of 20 µl per well. Final concentrations calculated to 1 µM for H-2K^b:IgG fusion protein, 100 µM for the peptides/peptide fragments and 1× SYPRO Orange. Fluorescence intensity was measured using the Applied Biosystems ROX preset with respective excitation/emission maxima at 587/607 nm, while heating the wells continuously from 25°C to 99°C with a ramp rate of 1% (temperature increase of 1.5°C per minute). Results were recorded by StepOne 2.2.2 software and analyzed by identifying the local minimum of the derivative of the melting curve for the segment relevant for denaturation of the peptide-binding superdomain (α1,2) of the MHC-I heavy chain."}
{"substance": "IINFEKL [synthesized SIINFEKL fragment]", "Melting point shift of peptide-MHC-I complex (melting curves)": "significant melting point shift"}
{"substance": "INFE [synthesized SIINFEKL fragment]", "Melting point shift of peptide-MHC-I complex (melting curves)": "no melting point shift"}
{"substance": "INFEKL [synthesized SIINFEKL fragment]", "Melting point shift of peptide-MHC-I complex (melting curves)": "significant melting point shift"}
{"substance": "SIINF [synthesized SIINFEKL fragment]", "Melting point shift of peptide-MHC-I complex (melting curves)": "significant melting point shift"}
{"substance": "SIINFE [synthesized SIINFEKL fragment]", "Melting point shift of peptide-MHC-I complex (melting curves)": "significant melting point shift"}
{"substance": "SIINFEK [synthesized SIINFEKL fragment]", "Melting point shift of peptide-MHC-I complex (melting curves)": "significant melting point shift"}
